Laboratory results published in patent US20120258980A1, “Antibacterial Agent for Drug-Resistant Bacteria, Method for Screening for Same, and Use of Same” (priority 2009, published 2012).
Converted amounts (≈) assume the structure as drawn. Read-outs that look alike come from different tables or passages of the source.

Legend:
[1] = system: VISA clinical isolates of MRSA (VI-MRSA) and of MSSA (VI-MSSA); experiment: microbe, parasite or virus in culture; type: cell-based, Staphylococcus aureus
Procedure, shortened: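 Strains were grown overnight at 37° C in TSB, adjusted in CAMHB to 0.3 absorbance at 578 nm and diluted 500-fold before equal-volume addition to compound dilutions.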

[2] = system: methicillin-susceptible S. aureus (MSSA), MRSA and mutants thereof; experiment: MIC measurement, Test Example 3 (MSSA, MRSA and sequential gyrA/grlA quinolone-resistant mutants); type: cell-based, Staphylococcus aureus; conditions: Staphylococcus aureus
From the text: That is, the first-step quinolone-resistant mutants are bacterial strains which are the same as their parent strains (clinical isolates) except that the genes shown in the corresponding parts of Table 1-1 are mutated. The second-step quinolone-resistant mutants are bacterial strains which are the same as the first-step quinolone-resistant mutants except that the genes shown in the corresponding parts of Table 1-1 are further mutated. The third-step quinolone-resistant mutants are bacterial strains which are the same as the second-step quinolone-resistant mutants except that the genes shown in the corresponding parts of Table 1-1 are further mutated. The fourth-step quinolone-resistant strain is a bacterial strain which is the same as the third-step quinolone-resistant mutant bacteria except that the gene shown in the corresponding part of Table 1-1 is further mutated.
(§1) Each of the bacterial strains listed in Table 1-1 was shake-cultured at 37° C. overnight in 4 mL of a medium (Tryptical Soy Broth: TSB, product of Becton Dickinson and Company). FDA209P was used as a control.
(§2) After completion of culturing, the resultant culture was suspended in a cation-adjusted Mueller Hinton Broth (CAMHB, product of Becton Dickinson and Company). Then, the obtained bacterial culture was adjusted in absorbance with the CAMHB so that the absorbance at 578 nm of the bacterial culture was adjusted to 0.3 measured by an absorption spectrometer. In addition, the resultant bacterial culture was 500-fold diluted with the CAMHB.
(§3) Each of the 500-fold diluted, pre-cultured bacterial cultures was added at 50 μL/well to the CAMHB containing the quinolones and the nybomycins at various concentrations (50 μL/well), followed by statically culturing at 37° C. overnight.
(§4) After completion of culturing, the growth of the bacteria was visually determined based on turbidity to measure MIC in each bacterial strain.

[3] = system: Enterococcus faecalis; experiment: MIC measurement, Test Example 6 (enterococcus); type: cell-based; conditions: Enterococcus faecalis, read-out: MIC
Description: as §1, §2, §3, §4
Quinolones and nybomycins were evaluated for antibacterial activity against Enterococcus faecalis shown in Table 6, wherein the other strains than NCTC12201 and NCTC12203 were subdivided from Shionogi & Co., Ltd (note that these strains are available also from the Department of Bacteriology, Juntendo University). The NCTC strains are both vancomycin-resistant E. faecalis and available from the National Collection of Type Cultures (NCTC).

[4] = system: VRSA clinical isolates; experiment: microbe, parasite or virus in culture; type: cell-based; conditions: Staphylococcus aureus
Description: as §1, §2, §3, §4
Here, the glycopeptides used were VCM and TEIC. The β-lactam used was OXA.

Question: Which results are given for `CCn1cc(C(=O)O)c(=O)c2cc(F)c(N3CCNCC3)cc21` [NFLX, norfloxacin]?
Answer: MIC ([1]; Staphylococcus aureus, 99/3700-W, VI-MRSA, The United Kingdom): 64 µg/mL (≈ 200 µM); MIC ([1]; Staphylococcus aureus, 99/3759-V, VI-MRSA, The United Kingdom): 128 µg/mL (≈ 401 µM); MIC ([1]; Staphylococcus aureus, 28160, VI-MRSA, South African Republic): 64 µg/mL (≈ 200 µM); MIC ([1]; Staphylococcus aureus, 98141, VI-MRSA, France): 64 µg/mL (≈ 200 µM); MIC ([1]; Staphylococcus aureus, A7 (JCSC4842), VI-MRSA, Taiwan): 32 µg/mL (≈ 100 µM); MIC ([1]; Staphylococcus aureus, AMC11094, VI-MRSA, Korea): 128 µg/mL (≈ 401 µM); MIC ([1]; Staphylococcus aureus, B7 (JCSC4852), VI-MRSA, Taiwan): 64 µg/mL (≈ 200 µM); MIC ([1]; Staphylococcus aureus, BR1, VI-MRSA, Brazil): 128 µg/mL (≈ 401 µM); MIC ([1]; Staphylococcus aureus, BR2, VI-MRSA, Brazil): 64 µg/mL (≈ 200 µM); MIC ([1]; Staphylococcus aureus, BR3, VI-MRSA, Brazil): 64 µg/mL (≈ 200 µM); MIC ([1]; Staphylococcus aureus, BR4, VI-MRSA, Brazil): 128 µg/mL (≈ 401 µM); MIC ([1]; Staphylococcus aureus, BR5, VI-MRSA, Brazil): 128 µg/mL (≈ 401 µM); MIC ([1]; Staphylococcus aureus, HIP06297, VI-MRSA, America): 64 µg/mL (≈ 200 µM); MIC ([1]; Staphylococcus aureus, HIP06854, VI-MRSA, America): 128 µg/mL (≈ 401 µM); MIC ([1]; Staphylococcus aureus, HIP07920, VI-MRSA, America): 16 µg/mL (≈ 50.1 µM); MIC ([1]; Staphylococcus aureus, HIP07930, VI-MRSA, America): 128 µg/mL (≈ 401 µM); MIC ([1]; Staphylococcus aureus, HIP08926, VI-MRSA, America): 64 µg/mL (≈ 200 µM); MIC ([1]; Staphylococcus aureus, HIP09143, VI-MRSA, America): > 128 µg/mL; MIC ([1]; Staphylococcus aureus, HIP09313, VI-MRSA, America): 32 µg/mL (≈ 100 µM); MIC ([1]; Staphylococcus aureus, HIP09433, VI-MRSA, America): > 128 µg/mL; MIC ([1]; Staphylococcus aureus, HIP09662, VI-MRSA, America): 64 µg/mL (≈ 200 µM); MIC ([1]; Staphylococcus aureus, HIP09735, VI-MRSA, America): > 128 µg/mL; MIC ([1]; Staphylococcus aureus, HIP09737, VI-MSSA, America): > 128 µg/mL; MIC ([1]; Staphylococcus aureus, HIP09740, VI-MRSA, America): > 128 µg/mL; MIC ([1]; Staphylococcus aureus, HIP10267, VI-MRSA, America): > 128 µg/mL; MIC ([1]; Staphylococcus aureus, HIP10540, VI-MRSA, America): > 128 µg/mL; MIC ([1]; Staphylococcus aureus, HIP12864, VI-MRSA, America): 64 µg/mL (≈ 200 µM); MIC ([1]; Staphylococcus aureus, HIP13036, VI-MRSA, America): 16 µg/mL (≈ 50.1 µM); MIC ([1]; Staphylococcus aureus, HIP13057, VI-MRSA, America): 128 µg/mL (≈ 401 µM); MIC ([1]; Staphylococcus aureus, IL (HIP7737), VI-MRSA, America): > 128 µg/mL; MIC ([1]; Staphylococcus aureus, JCSC7193, VI-MRSA, Thailand): 64 µg/mL (≈ 200 µM); MIC ([1]; Staphylococcus aureus, JCSC7195, VI-MRSA, Thailand): 128 µg/mL (≈ 401 µM); MIC ([1]; Staphylococcus aureus, JCSC7203, VI-MRSA, Thailand): 64 µg/mL (≈ 200 µM); MIC ([1]; Staphylococcus aureus, LIM2, VI-MRSA, France): 128 µg/mL (≈ 401 µM); MIC ([1]; Staphylococcus aureus, LY-1999-01, VI-MSSA, Oman): 16 µg/mL (≈ 50.1 µM); MIC ([1]; Staphylococcus aureus, LY-1999-03, VI-MRSA, Oman): 64 µg/mL (≈ 200 µM); MIC ([1]; Staphylococcus aureus, MI (HIP5827), VI-MRSA, America): 128 µg/mL (≈ 401 µM); MIC ([1]; Staphylococcus aureus, MRSA / MSSA / NRS 76 / VISA, NRS76, VI-MSSA, America): 128 µg/mL (≈ 401 µM); MIC ([1]; Staphylococcus aureus, MRSA / MSSA / NRS 79 / VISA, NRS79, VI-MRSA, America): > 128 µg/mL; MIC ([1]; Staphylococcus aureus, MRSA / MSSA / NRS 118 / VISA, NRS118, VI-MRSA, America): 128 µg/mL (≈ 401 µM); MIC ([1]; Staphylococcus aureus, MRSA / MSSA / NRS 126 / VISA, NRS126, VI-MRSA, America): 64 µg/mL (≈ 200 µM); MIC ([1]; Staphylococcus aureus, Mu3, VI-MRSA, Japan): 128 µg/mL (≈ 401 µM); MIC ([1]; Staphylococcus aureus, Mu50, VI-MRSA, Japan): 128 µg/mL (≈ 401 µM); MIC ([1]; Staphylococcus aureus, NJ (HIP5836), VI-MRSA, America): 128 µg/mL (≈ 401 µM); MIC ([1]; Staphylococcus aureus, P1V44, VI-MSSA, Belgium): 4 µg/mL (≈ 12.5 µM); MIC ([1]; Staphylococcus aureus, PC, VI-MRSA, America): 64 µg/mL (≈ 200 µM); MIC ([1]; Staphylococcus aureus, SA MER-S6, VI-MSSA, France): 2 µg/mL (≈ 6.26 µM); MIC ([1]; Staphylococcus aureus, SA MER-S12, VI-MSSA, France): 2 µg/mL (≈ 6.26 µM); MIC ([1]; Staphylococcus aureus, SA MER-S20, VI-MSSA, France): 0.5 µg/mL (≈ 1.57 µM); MIC ([2]; MR5867-2, second-step mutant, further gyrA S84L): 64 µg/mL (≈ 200 µM); MIC ([2]; MR5867-3, third-step mutant, further grlA S80F): > 128 µg/mL; MIC ([2]; MR5867-4, fourth-step mutant, further gyrA E88K): > 128 µg/mL; MIC ([3]; E. faecalis 36-15672, quinolone-susceptible enterococci): 4 µg/mL (≈ 12.5 µM); MIC ([3]; E. faecalis 36-15673, quinolone-susceptible enterococci): 4 µg/mL (≈ 12.5 µM); MIC ([3]; E. faecalis 36-15678, quinolone-susceptible enterococci): 4 µg/mL (≈ 12.5 µM); MIC ([3]; E. faecalis 36-15686, quinolone-resistant enterococci): > 128 µg/mL; MIC ([3]; E. faecalis 36-15688, quinolone-susceptible enterococci): 2 µg/mL (≈ 6.26 µM); MIC ([3]; E. faecalis 36-15694, quinolone-resistant enterococci): > 128 µg/mL; MIC ([3]; E. faecalis 36-15696, quinolone-susceptible enterococci): 4 µg/mL (≈ 12.5 µM); MIC ([3]; E. faecalis 36-15703, quinolone-resistant enterococci): 64 µg/mL (≈ 200 µM); MIC ([3]; E. faecalis 36-15716, quinolone-resistant enterococci): > 128 µg/mL; MIC ([3]; E. faecalis 36-15718, quinolone-susceptible enterococci): 4 µg/mL (≈ 12.5 µM); MIC ([3]; E. faecalis 36-15720, quinolone-susceptible enterococci): 8 µg/mL (≈ 25.1 µM); MIC ([3]; E. faecalis 36-15722, quinolone-resistant enterococci): 128 µg/mL (≈ 401 µM); MIC ([3]; E. faecalis 36-15726, quinolone-resistant enterococci): 128 µg/mL (≈ 401 µM); MIC ([3]; E. faecalis 36-15730, quinolone-susceptible enterococci): 8 µg/mL (≈ 25.1 µM); MIC ([3]; E. faecalis 36-15736, quinolone-susceptible enterococci): 4 µg/mL (≈ 12.5 µM); MIC ([3]; E. faecalis 36-15741, quinolone-susceptible enterococci): 4 µg/mL (≈ 12.5 µM); MIC ([3]; NCTC 12201 / VRE, E. faecalis NCTC12201, vancomycin-resistant (VRE), quinolone-susceptible enterococci): 2 µg/mL (≈ 6.26 µM); MIC ([3]; NCTC 12203 / VRE, E. faecalis NCTC12203, vancomycin-resistant (VRE), quinolone-susceptible enterococci): 2 µg/mL (≈ 6.26 µM); MIC ([4]; VRS1, VRSA, Michigan): > 128 µg/mL; MIC ([4]; VRS2, VRSA, Pennsylvania): > 128 µg/mL; MIC ([4]; VRS3, VRSA, New York): 128 µg/mL (≈ 401 µM); MIC ([4]; VRS4, VRSA, New York): 128 µg/mL (≈ 401 µM); MIC ([4]; VRS5, VRSA, Michigan): > 128 µg/mL; MIC ([4]; VRS6, VRSA, Michigan): > 128 µg/mL; MIC ([4]; VRS7, VRSA, Michigan): > 128 µg/mL
